Measured values from ChEMBL document CHEMBL5042492, “Noncovalent CDK12/13 dual inhibitors-based PROTACs degrade CDK12-Cyclin K complex and induce synthetic lethality with PARP inhibitor” (Eur J Med Chem, 2022).

Biological target: CDK12/Cyclin K (Homo sapiens, UniProt Q9NYV4)
Experiment: Inhibition of human CDK12 (696 to 1082 residues) /cyclinK (1 to 300 residues) using ac-YSPTSPpSYSPTSFpS-YSPTSPpSY-[PEG2]-RR-amid peptide as substrate in presence of ATP measured after 2 hrs by ADP-Glo kinase assay
Format: protein-complex assay

Chain of CDK12/Cyclin K (O75909 whole entry, the tested form may be a part): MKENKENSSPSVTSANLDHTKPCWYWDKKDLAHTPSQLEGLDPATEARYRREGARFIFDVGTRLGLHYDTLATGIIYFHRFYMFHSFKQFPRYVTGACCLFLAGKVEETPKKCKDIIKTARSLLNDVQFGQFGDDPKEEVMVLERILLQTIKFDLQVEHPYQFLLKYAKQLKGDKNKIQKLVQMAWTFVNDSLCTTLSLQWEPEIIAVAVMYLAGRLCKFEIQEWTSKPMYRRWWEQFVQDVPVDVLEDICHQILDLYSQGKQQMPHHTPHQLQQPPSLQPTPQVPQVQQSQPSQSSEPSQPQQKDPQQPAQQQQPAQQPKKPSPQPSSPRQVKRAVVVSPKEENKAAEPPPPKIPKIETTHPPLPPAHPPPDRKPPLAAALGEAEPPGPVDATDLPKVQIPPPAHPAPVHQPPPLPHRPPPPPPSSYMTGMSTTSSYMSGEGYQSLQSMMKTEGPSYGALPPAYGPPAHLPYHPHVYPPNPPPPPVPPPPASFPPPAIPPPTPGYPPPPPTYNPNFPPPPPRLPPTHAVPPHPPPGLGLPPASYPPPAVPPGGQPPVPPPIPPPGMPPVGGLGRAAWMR
Chain of CDK12/Cyclin K (Q9NYV4 whole entry, the tested form may be a part): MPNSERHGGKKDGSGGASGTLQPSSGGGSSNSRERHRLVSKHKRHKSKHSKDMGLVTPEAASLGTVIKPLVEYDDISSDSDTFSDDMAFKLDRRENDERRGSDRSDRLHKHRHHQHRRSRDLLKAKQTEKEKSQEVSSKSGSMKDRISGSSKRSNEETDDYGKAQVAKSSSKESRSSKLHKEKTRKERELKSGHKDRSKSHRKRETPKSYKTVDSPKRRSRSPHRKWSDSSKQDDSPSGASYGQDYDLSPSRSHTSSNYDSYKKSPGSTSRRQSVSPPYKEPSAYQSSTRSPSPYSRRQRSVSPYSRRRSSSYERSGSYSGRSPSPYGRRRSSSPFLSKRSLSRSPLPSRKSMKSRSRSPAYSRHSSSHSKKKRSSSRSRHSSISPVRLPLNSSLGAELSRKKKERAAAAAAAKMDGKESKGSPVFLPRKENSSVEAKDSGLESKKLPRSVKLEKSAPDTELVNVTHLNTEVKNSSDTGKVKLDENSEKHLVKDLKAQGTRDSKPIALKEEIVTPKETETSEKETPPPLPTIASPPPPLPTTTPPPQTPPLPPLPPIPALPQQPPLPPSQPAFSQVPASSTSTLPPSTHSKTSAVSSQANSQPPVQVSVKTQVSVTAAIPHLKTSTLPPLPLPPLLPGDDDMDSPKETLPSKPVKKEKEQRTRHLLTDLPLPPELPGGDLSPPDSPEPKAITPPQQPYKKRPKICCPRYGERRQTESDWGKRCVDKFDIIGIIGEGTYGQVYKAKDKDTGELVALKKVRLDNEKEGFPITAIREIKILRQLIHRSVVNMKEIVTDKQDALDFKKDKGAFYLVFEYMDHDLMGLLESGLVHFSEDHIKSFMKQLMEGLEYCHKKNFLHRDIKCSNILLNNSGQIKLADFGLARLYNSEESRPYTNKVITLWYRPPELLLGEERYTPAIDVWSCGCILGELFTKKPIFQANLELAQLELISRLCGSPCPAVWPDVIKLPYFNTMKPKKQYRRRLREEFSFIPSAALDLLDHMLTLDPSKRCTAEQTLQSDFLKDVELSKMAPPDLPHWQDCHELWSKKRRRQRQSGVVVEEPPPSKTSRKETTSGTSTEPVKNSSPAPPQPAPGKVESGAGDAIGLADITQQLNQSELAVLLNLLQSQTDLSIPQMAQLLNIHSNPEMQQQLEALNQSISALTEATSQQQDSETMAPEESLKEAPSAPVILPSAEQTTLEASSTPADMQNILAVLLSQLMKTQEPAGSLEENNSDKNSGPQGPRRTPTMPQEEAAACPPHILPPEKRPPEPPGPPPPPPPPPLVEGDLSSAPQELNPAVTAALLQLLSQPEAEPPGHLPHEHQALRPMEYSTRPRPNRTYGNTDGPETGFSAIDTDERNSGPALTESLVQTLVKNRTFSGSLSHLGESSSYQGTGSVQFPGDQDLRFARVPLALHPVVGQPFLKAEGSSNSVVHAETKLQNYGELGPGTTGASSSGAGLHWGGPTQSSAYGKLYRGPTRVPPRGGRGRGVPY

IC50: 66.4 nM
Structure (SMILES): COCCOCCOc1cc2[nH]c(CNc3nc(OCC[C@@H]4CCCCN4)nc4c3ncn4C(C)C)nc2cc1F
